Like-named read-outs stand apart in the source and are kept apart here.
What was measured:
[1] = tested on: MDCK cells; assay: Cytotoxicity determination: cell viability of uninfected cells, CellTiter-Glo luminescent cell viability assay; conditions: 48 h; for Viability %: MDCK cells
[2] = tested on: MDCK cells; conditions: dog, 48 h
[3] = tested on: CK-2; conditions: 30 µM; cited from earlier work
[4] = tested on: murine retinal ganglion cells; conditions: cited from earlier work
[5] = tested on: H3N2 Influenza A Virus; format: cell-based
[6] = tested on: TNFα; assay: Expression of TNFα in cells (general statement, no data shown); format: cell-based; conditions: no values
Text: A person skilled in the art would be able to identify TNFα-downregulating compounds of the invention by contacting one or more cells with a compound of the invention and assaying for the presence of one TNFα and comparing the levels of TNFα in the one or more cells with that of controls. Such methods are known in the art and are described in the examples herein below.

[7] = tested on: PKC and CK-I; conditions: 100 µM; cited from earlier work

`CC(=O)N(CCS[C@@H]1O[C@H](C(=O)O)[C@@H](O)[C@H](O)[C@H]1O)[C@H]1CC[C@]2(C)[C@H]3C(=O)C=C4[C@@H]5C[C@@](C)(C(=O)O)CC[C@]5(C)CC[C@@]4(C)[C@]3(C)CC[C@H]2C1(C)C` [Compound 5, (3S,18R,20S)-3-{N-Acetyl-N-[2-(beta-D-glucopyranuronosylthio)-ethyl]-amino}-11-oxo-olean-12-en-29-oic acid] showed a Viability % ([1]; 25 µM) of 106.6% and a Viability % ([1]; 250 µM) of 93.5%.

`COC(=O)[C@H]1O[C@@H](SCCN[C@H]2CC[C@]3(C)[C@H]4C(=O)C=C5[C@@H]6C[C@@](C)(C(=O)O)CC[C@]6(C)CC[C@@]5(C)[C@]4(C)CC[C@H]3C2(C)C)[C@H](O)[C@@H](O)[C@@H]1O` [Compound 2, (3S,18R,20S)-3-[2-S-(Methyl-1-thio-beta-D-glucopyranosyluronate)-ethyl-amino]-11-oxo-olean-12-en-29-oic acid] showed a Viability % ([1]; 25 µM) of 114.6% and a Viability % ([1]; 250 µM) of 101.2%.

For `CC1(C)[C@@H](O)CC[C@]2(C)[C@H]3C(=O)C=C4[C@@H]5C[C@@](C)(C(=O)O)CC[C@]5(C)CC[C@@]4(C)[C@]3(C)CC[C@@H]12` [Glycyrrhetinic acid], the Viability % ([2]; 25 µM) is listed as 0.2%, the Viability % ([2]; 250 µM) is listed as 0.0% and the “phosphorylation of C3α by CK-2” value [3] is listed as “completely inhibited”. For the same molecule, the postsynaptic light response [4] was 30 % of control.

`COC(=O)CCC(=O)N(CCS[C@@H]1O[C@H](C(=O)OC)[C@@H](O)[C@H](O)[C@H]1O)[C@H]1CC[C@]2(C)[C@H]3C(=O)C=C4[C@@H]5C[C@@](C)(C(=O)O)CC[C@]5(C)CC[C@@]4(C)[C@]3(C)CC[C@H]2C1(C)C` [Compound 6, (3S,18R,20S)-3-{N-(4-Methoxy-1,4-dioxobutyl)-N-[2-S-(methyl-1-thio-beta-D-glucopyranosyluronate)-ethyl]-amino}-11-oxo-olean-12-en-29-oic acid] gave a Viability % ([1]; 25 µM) of 107.3% and a Viability % ([1]; 250 µM) of 106.3%.

Work on `CC1(C)[C@@H](NCCS[C@@H]2O[C@H](C(=O)O)[C@@H](O)[C@H](O)[C@H]2O)CC[C@]2(C)[C@H]3C(=O)C=C4[C@@H]5C[C@@](C)(C(=O)O)CC[C@]5(C)CC[C@@]4(C)[C@]3(C)CC[C@@H]12` [Compound 3, (3S,18R,20S)-3-[2-(β-D-glucopyranuronosylthio)-ethyl-amino]-11-oxo-olean-12-en-29-oic acid] yielded a Viability % ([1]; 25 µM) of 103.5% and a Viability % ([1]; 250 µM) of 105.5%.

With `CON(C1OC(CO)C(O)C(O)C1O)C1CCC2(C)C(CCC3(C)C2C(=O)C=C2C4CC(C)(C(=O)O)CCC4(C)CCC23C)C1(C)C` [Compound 1, (3S,18R,20S)-11-Oxo-3-[(beta-D-glucopyranosyl)methoxamino]-olean-12-en-29-oic acid] the “cytopathic effect associated with virus replication in cell culture” value ([5]; general statement, no values) was “reduce the cytopathic effect” and the “expression of TNFα” value [6] was “inhibit the expression of TNFα”.

For `CC1(C)[C@@H](O[C@H]2O[C@H](C(=O)O)[C@@H](O)[C@H](O)[C@H]2O[C@@H]2O[C@H](C(=O)O)[C@@H](O)[C@H](O)[C@H]2O)CC[C@]2(C)[C@H]3C(=O)C=C4[C@@H]5C[C@@](C)(C(=O)O)CC[C@]5(C)CC[C@@]4(C)[C@]3(C)CC[C@@H]12` [Glycyrrhizin, glycyrrhizin, reference compound], the “reduction of the CPE (cytopathic effect)” value [5] is listed as 57%, the “phosphorylation of HMGB1/2 by PKC and CK-I” value [7] is listed as “completely inhibits” and the Viability % ([1]; 25 µM) is listed as 100.9%. The Viability % ([1]; 250 µM) was 105.3%, the Viability % ([1]; 1500 µM) was 101.7% and the “cell viability of uninfected treated cells versus uninfected untreated cells” value ([1]; 1.5 mM, uninfected MDCK cells) was “not significantly different”.

Molecule `COC(=O)[C@H]1O[C@@H](SCCN(C(C)=O)[C@H]2CC[C@]3(C)[C@H]4C(=O)C=C5[C@@H]6C[C@@](C)(C(=O)O)CC[C@]6(C)CC[C@@]5(C)[C@]4(C)CC[C@H]3C2(C)C)[C@H](O)[C@@H](O)[C@@H]1O` [Compound 4, (3S,18R,20S)-3-{N-Acetyl-N-[2-S-(methyl-1-thio-beta-D-glucopyranosyluronate)-ethyl]-amino}-11-oxo-olean-12-en-29-oic acid] has a Viability % ([1]; 25 µM) of 104.4% and a Viability % ([1]; 250 µM) of 99.4%.

— EP2258713A1, “Antiviral Triterpene Derivatives” (priority 2009, dated 2010)
